Values joined by “and” are separate entries in the source; they are usually repeats but may differ in a detail not shown here. Equal entries are not always repeated. Where two headings read alike, the source gives them in different places. Non-standard residues stand in square brackets, D forms with d. Residues, ends and D or L forms follow the SMILES beside them. dPhg = N[C@@H](C(=O)O)c1ccccc1; Nle = CCCC[C@H](N)C(=O)O

Data set [1] concerns lizard (Anolis caroliniensis) skin. As to the kind of experiment: in vitro lizard skin bioassay, melanosome dispersion. To be noted: alpha-MSH = 1.0. The data set is classed as cell-based. As to the method:
(§1) Biological effect on in vivo and in vitro melanosome dispersion was examined using the frog (Rana pipiens) and the lizard (Anolis caroliniensis). [Hadley et al., ,Science 213:1025-1027(1981)]; similar examinations were conducted with respect to the duration of its ability to stimulate melanosome dispersion in vitro using the skin bioassay as described in Shimume, Endrochrinology, 54:553-560(1954). The in vitro results are depicted in Table I.

The subject of data set [2] is frog (Rana pipiens) skin. The data set is classed as cell-based. As to the method: as §1
Data set [3] has as its system TA-98 strain of S. typhimurium. As to the kind of experiment: Ames microbacterial assay. To be noted: spontaneous revertants subtracted. The procedure:
The Ames microbacterial assay was used for these tests which were performed both with and without a microsomal enzyme/NADPH generating system. Briefly, this test measures the number of reverse mutations which occur in special histidine-dependent strains of Salmonella typhimurium. Positives (mutations) are scored as the number of revertant cells which are able to form colonies in a histidine-deficient growth medium after exposure to a mutagenic substance.
All substances were dissolved in sterile 0.9% sodium chloride (without preservatives) to concentrations of 10^-2, 10^-3 and 10^-4 Molar. The TA-98 strain of S. typhimurium was used and experiments were performed with and without exposure to S-9 rat liver microsomal enzymes and an NADPH generating system. This enzyme cocktail can metabolically activate some compounds to mutagenic species. In addition to the melanotropins, doxorybicin (Adriamycin™) was also simultaneously tested. […] It was thus included to act as a positive control. […] For the actual evalution of revertants, the identity of the specific test compounds was blinded.

Take `CCCC[C@H](NC(C)=O)C(=O)N[C@@H](CCC(=O)O)C(=O)N[C@@H](Cc1c[nH]cn1)C(=O)N[C@@H](C(=O)N[C@@H](CCCNC(=N)N)C(=O)N[C@@H](Cc1c[nH]c2ccccc12)C(=O)NCC(=O)N[C@@H](CCCCN)C(N)=O)c1ccccc1` [Ac-[Nle^4 -D-Plg^7]-alpha-MSH4-11 -NH2] (Ac-[Nle]EH[dPhg]RWGK-NH2): the “Relative Potency Lizard” value in data set [1] was determined as 0.0005. Besides, the “Relative Potency Frog” value in data set [2] (in vitro, alpha-MSH = 1.0) is on record as 0.0003.
In the same order, the values of `CCCC[C@H](NC(C)=O)C(=O)N[C@@H](CCC(=O)O)C(=O)N[C@@H](Cc1c[nH]cn1)C(=O)N[C@H](C)C(=O)N[C@@H](CCCNC(=N)N)C(=O)N[C@@H](Cc1c[nH]c2ccccc12)C(=O)NCC(=O)N[C@@H](CCCCN)C(N)=O` [Ac-[Nle^4 -D-Ala^7]-alpha-MSH4-11 -NH2] (Ac-[Nle]EH[dA]RWGK-NH2) are 0.020 and 0.000080.
Regarding `CCCC[C@H](NC(C)=O)C(=O)N[C@@H](CCC(=O)O)C(=O)N[C@@H](Cc1c[nH]cn1)C(=O)N[C@@H](Cc1ccccc1)C(=O)N[C@H](CCCNC(=N)N)C(=O)N[C@@H](Cc1c[nH]c2ccccc12)C(=O)NCC(=O)N[C@@H](CCCCN)C(N)=O` [Ac-[Nle^4 -D-Arg^8]-alpha-MSH4-11 -NH2] (Ac-[Nle]EHF[dR]WGK-NH2), the “Relative Potency Lizard” value in data set [1] is 0.0022. Moreover, the “Relative Potency Frog” value in data set [2] (in vitro, alpha-MSH = 1.0) was 0.000016.
Take “Ac-[Nle^4 -D-Phe^7 -D-Arg^8 ]-alpha-MSH4-”: the “Relative Potency Lizard” value in data set [1] is given as 0.0022.
`CCCC[C@H](NC(C)=O)C(=O)N[C@@H](CCC(=O)O)C(=O)N[C@@H](Cc1c[nH]cn1)C(=O)N[C@@H](Cc1ccc(O)cc1)C(=O)N[C@@H](CCCNC(=N)N)C(=O)N[C@@H](Cc1c[nH]c2ccccc12)C(=O)NCC(=O)N[C@@H](CCCCN)C(N)=O` [Ac-[Nle^4 -Tyr^7]-alpha-MSH4-11 -NH2] (Ac-[Nle]EHYRWGK-NH2): the “Relative Potency Lizard” value in data set [1] turned out to be 0.0090.
With `COc1cccc2c1C(=O)c1c(O)c3c(c(O)c1C2=O)C[C@@](O)(C(=O)CO)C[C@@H]3O[C@H]1C[C@H](N)[C@H](O)[C@H](C)O1` [Adriamycin, Doxorubicin, reference compound], in data set [3] (10 µg/ml), the “[…] PLATE WITH S-9” value was 2500 and the “[…] PLATE WITHOUT S-9” value is given as 230. In data set [3] (1.0 g/ml), the “[…] PLATE WITH S-9” value stood at 100 and the “[…] PLATE WITHOUT S-9” value came to 0.
In the case of `CCCC[C@H](NC(C)=O)C(=O)N[C@@H](CCC(=O)O)C(=O)N[C@@H](Cc1c[nH]cn1)C(=O)N[C@@H](Cc1ccccc1)C(=O)N[C@@H](CCCNC(=N)N)C(=O)N[C@@H](Cc1c[nH]c2ccccc12)C(N)=O` [Ac-[Nle^4]-alpha-MSH4-9 -NH2] (Ac-[Nle]EHFRW-NH2), the “Relative Potency Lizard” value in data set [1] is 0.18. Also, in data set [2] (in vitro, alpha-MSH = 1.0), the “Relative Potency Frog” value was found to be 0.0007.
For `CCCC[C@H](NC(C)=O)C(=O)N[C@@H](CCC(=O)O)C(=O)N[C@@H](Cc1ccccc1)C(=O)N[C@H](Cc1ccccc1)C(=O)N[C@@H](CCCNC(=N)N)C(=O)N[C@@H](Cc1c[nH]c2ccccc12)C(=O)NCC(=O)N[C@@H](CCCCN)C(N)=O` [Ac-[Nle^4 -Phe^6 -D-Phe^7]-alpha-MSH4-11 -NH2] (Ac-[Nle]EF[dF]RWGK-NH2), the “Relative Potency Frog” value in data set [2] (in vitro, alpha-MSH = 1.0) was 0.012.
For the compound `CC(=O)N[C@@H](CCC(=O)O)C(=O)N[C@@H](Cc1c[nH]cn1)C(=O)N[C@H](Cc1ccccc1)C(=O)N[C@@H](CCCNC(=N)N)C(=O)N[C@@H](Cc1c[nH]c2ccccc12)C(=O)NCC(=O)N[C@@H](CCCCN)C(N)=O` [Ac-[D-Phe^7]-alpha-MSH5-11 -NH2] (Ac-EH[dF]RWGK-NH2), the “Relative Potency Frog” value in data set [2] (in vitro, alpha-MSH = 1.0) is reported as 0.01.
Same read-out and setting: under Ac-[Phe-Gly^7 ]-alpha-MSH4-11 -NH2 stands 0.10.
`CCCC[C@H](NC(C)=O)C(=O)N[C@@H](CCC(=O)O)C(=O)N[C@@H](Cc1c[nH]cn1)C(=O)N[C@H](Cc1ccccc1)C(=O)N[C@@H](CCCNC(=N)N)C(=O)N[C@@H](Cc1c[nH]c2ccccc12)C(=O)NCC(N)=O` [Ac-[Nle^4 -D-Phe^7]-alpha-MSH4-10 -NH2]: the “Relative Potency Frog” value in data set [2] (in vitro, alpha-MSH = 1.0) worked out at 0.02. Besides, the “REVERTANTS PER PLATE WITH S-9” value in data set [3] (10^-2 M), in data set [3] (10^-3 M) and in data set [3] (10^-4 M) was 0 each time. The “[…] PLATE WITHOUT S-9” value in data set [3] (10^-2 M), in data set [3] (10^-3 M) and in data set [3] (10^-4 M) was 0 in each case.
Turning to `CCCC[C@H](NC(C)=O)C(=O)N[C@@H](CCC(=O)O)C(=O)N[C@@H](Cc1c[nH]cn1)C(=O)N[C@H](Cc1ccccc1)C(=O)N[C@@H](CCCNC(=N)N)C(=O)N[C@H](Cc1c[nH]c2ccccc12)C(N)=O` [Ac-[Nle^4 -D-Phe^7 -D-Trp^9]-alpha-MSH4-9 -NH2] (Ac-[Nle]EH[dF]R[dW]-NH2), in data set [1], the “Relative Potency Lizard” value is 3.8. Further, the “Relative Potency Frog” value in data set [2] (in vitro, alpha-MSH = 1.0) is recorded as 0.03.
Take `CC(=O)N[C@@H](Cc1ccc(O)cc1)C(=O)N[C@@H](CCC(=O)O)C(=O)N[C@@H](Cc1c[nH]cn1)C(=O)N[C@H](Cc1ccccc1)C(=O)N[C@@H](CCCNC(=N)N)C(=O)N[C@@H](Cc1c[nH]c2ccccc12)C(=O)NCC(=O)N[C@@H](CCCCN)C(N)=O` [Ac-[Tyr^4 -D-Phe^7]-alpha-MSH4-11 -NH2] (Ac-YEH[dF]RWGK-NH2): in data set [2] (in vitro, alpha-MSH = 1.0), the “Relative Potency Frog” value was 0.01.
Consider `CCCC[C@H](NC(C)=O)C(=O)N[C@@H](CCC(=O)O)C(=O)N[C@@H](Cc1c[nH]cn1)C(=O)N[C@@H](C)C(=O)N[C@@H](CCCNC(=N)N)C(=O)N[C@@H](Cc1c[nH]c2ccccc12)C(=O)NCC(=O)N[C@@H](CCCCN)C(N)=O` [Ac-[Nle^4 -Ala^7]-alpha-MSH4-11 -NH2] (Ac-[Nle]EHARWGK-NH2), for which the “Relative Potency Frog” value in data set [2] was 0.02.
Consider `CCCC[C@H](NC(C)=O)C(=O)N[C@@H](CCC(=O)O)C(=O)N[C@@H](Cc1c[nH]cn1)C(=O)N[C@@H](Cc1ccccc1)C(=O)N[C@@H](CCCNC(=N)N)C(=O)N[C@@H](Cc1c[nH]c2ccccc12)C(=O)NCC(=O)N[C@@H](CCCCN)C(N)=O` [Ac-[Nle^4 ]-alpha-MSH4-11 -NH2] (Ac-[Nle]EHFRWGK-NH2), for which, in data set [2] (in vitro, alpha-MSH = 1.0), the “Relative Potency Frog” value was determined as 0.0019.
Take `CCCC[C@H](NC(C)=O)C(=O)N[C@@H](CCC(=O)O)C(=O)N[C@@H](Cc1c[nH]cn1)C(=O)N[C@H](Cc1ccc(O)cc1)C(=O)N[C@@H](CCCNC(=N)N)C(=O)N[C@@H](Cc1c[nH]c2ccccc12)C(=O)NCC(=O)N[C@@H](CCCCN)C(N)=O` [Ac-[Nle^4 -D-Tyr^7]-alpha-MSH4-11 -NH2] (Ac-[Nle]EH[dY]RWGK-NH2): the “Relative Potency Lizard” value in data set [1] is recorded as 1.0. Moreover, in data set [2] (in vitro, alpha-MSH = 1.0), the “Relative Potency Frog” value was 0.0020 and 0.0033.
As to `CCCC[C@H](NC(C)=O)C(=O)N[C@@H](CCC(=O)O)C(=O)N[C@@H](Cc1c[nH]cn1)C(=O)N[C@H](Cc1ccccc1)C(=O)N[C@@H](CCCNC(=N)N)C(=O)N[C@@H](Cc1ccccc1)C(=O)NCC(=O)N[C@@H](CCCCN)C(N)=O` [Ac-[Nle^4 -D-Phe^7 -Phe^9]-alpha-MSH4-11 -NH2] (Ac-[Nle]EH[dF]RFGK-NH2), in data set [2] (in vitro, alpha-MSH = 1.0), the “Relative Potency Frog” value is recorded as 0.017.
